Test results as given in patent US20150004110A1, “NOVEL ANTI-AGING AND DEPIGMENTING COSMETIC COMPOSITIONS” (DIVERCHIM, priority 2011, published 2015).

Legend:
collagen IV = assay: Staining and immunolabelling of skin explant sections: collagen IV; format: cell-based, human; details: treated skin explant sections
Experimental: (§1) 1. Preparation of the explants • During abdominoplasty of a person, 45 skin explants were prepared. The explants were put in BEM medium (BIO-EC's Explants Medium) for survival at 37° C. in humid atmosphere, enriched with 5% CO2.
(§2) 2. Application of the products • The solutions are prepared in DMSO from pure products, in order to obtain final concentrations of […] by incorporating an identical volume of 10 μl in each well and for each treatment. The treatment was carried out in the survival medium on days 0, 1, 2, 5 and 7.
(§3) 3. Taking samples • On D0, the 3 explants of batch TO were taken and each explant was cut in two. One part was fixed in buffered formol for observation of the general morphology. The other was frozen and stored at −80° C. • On D5 and D9, 3 explants from each batch were taken and treated in the same way.
(§4) 4. Histological treatment • After fixation for 48 hours in buffered formol, the samples were dehydrated and embedded in paraffin using a Leica 1020 automatic dehydrator. They were embedded according to procedure MO-H-153 using a Leica EG 1160 coating station. Sections of 5 μm were prepared according to procedure MO-H-173 using a Minot-type microtome, Leica RM 2125 and mounted on Superfrost® histological glass slides.
(§5) 6. Staining and immunolabelling
(§6) Immunolabelling will be carried out on sections with the appropriate antibody. […]

[1] = tested on: skin explants (abdominoplasty); assay: Histological assessment of the general morphology of skin explants maintained in survival; format: cell-based, human; details: 2 μg/mL in DMSO, after 9 days of survival
Experimental: as §1, §2, §3
4. […]
5. Microscopic observations • The microscopic observations were carried out by light microscopy and fluorescence microscopy, using a Orthoplan-type Leica microscope, with ×25 objective. The images were recorded with a Sony DXC 390P tri CCD camera and stored using the Leica IM1000 data archiving software. • The general morphology was observed on sections in paraffin after staining with Masson trichrome, Goldner variant according to procedure MO-H-157. […]

collagen VII = assay: Staining and immunolabelling of skin explant sections: collagen VII; format: cell-based, human; details: treated skin explant sections
Experimental: as §1, §2, §3, §4, §5, §6

[2] = tested on: normal human epidermal keratinocytes; assay: Differential expression PCR arrays (RT-qPCR) of keratinocyte differentiation markers; format: cell-based; details: 10 μM
Experimental: The expression of the specific markers was evaluated by RT-qPCR (reverse transcription quantitative polymerase chain reaction) on messenger RNAs extracted from the cell lawns from each treatment. The transcriptomic profile contains 64 genes selected for their importance in keratinocyte differentiation. The PCR reactions (polymerase chain reactions) were carried out by quantitative PCR with the “Light Cycler” system (Roche Molecular System Inc.) according to the procedures recommended by the supplier. Normal human epidermal keratinocytes were incubated in the presence of compound 1 or a reference with calcium chloride. The expression of the specific markers was evaluated by RT-qPCR on the messenger RNAs extracted from the cell lawns from each treatment.

B16 melanocytes = assay: Cell viability, MTT reduction test; format: cell-based
Experimental: The melanocytes were seeded in a 96-well plate and were cultured for 24 h (37° C., 5% CO2, DMEM 1 g/L glucose without phenol red supplemented with glucose at 3 g/L, L-glutamine at 2 mM, penicillin at 50 U/mL, streptomycin at 50 μg/mL, foetal calf serum (FCS) at 10%). After incubation, the culture medium was then replaced with culture medium supplemented or not supplemented (unstimulated control) with a stable derivative of α-MSH and containing or not containing (controls) the test compounds or the reference (kojic acid at 25, 100, 400, 800 μg/mL). Each experiment was carried out with n=3, apart from the controls carried out with n=6, then the cells were incubated for 72 h. Wells without cells received in parallel the same quantities of medium supplemented or not supplemented with NDP-MSH and containing or not containing the test compounds or the reference in order to quantify the background noise associated with the presence of the compounds. At the end of the treatment, the cells were incubated in the presence of MTT (tetrazolium salt), the transformation of which to blue crystals of formazan is proportional to the activity of succinate dehydrogenase (mitochondrial enzyme). After dissociation of the cells, the formazan was dissolved in DMSO medium and the optical density (OD), representative of the number of living cells and of their metabolic reactivity, was measured with a microplate reader at 540 nm (VERSAmax, Molecular Devices). The operating conditions are the same as in Example 12.

filaggrin = assay: In situ immunolabelling of filaggrin in keratinocytes; format: cell-based; details: normal human epidermal keratinocytes
Description: Transglutaminase K, TGK, and filaggrin are two protein markers of epidermal differentiation involved in arrangement of the keratin filaments and formation of the envelope of the stratum corneum.

PPARδ (h) = biological target: T1, PPARδ (h) (Homo sapiens, UniProt Q03181); assay: PPARδ antagonist effect, coactivator Alpha screen; format: biochemical
T1 sequence (Q03181 1-441): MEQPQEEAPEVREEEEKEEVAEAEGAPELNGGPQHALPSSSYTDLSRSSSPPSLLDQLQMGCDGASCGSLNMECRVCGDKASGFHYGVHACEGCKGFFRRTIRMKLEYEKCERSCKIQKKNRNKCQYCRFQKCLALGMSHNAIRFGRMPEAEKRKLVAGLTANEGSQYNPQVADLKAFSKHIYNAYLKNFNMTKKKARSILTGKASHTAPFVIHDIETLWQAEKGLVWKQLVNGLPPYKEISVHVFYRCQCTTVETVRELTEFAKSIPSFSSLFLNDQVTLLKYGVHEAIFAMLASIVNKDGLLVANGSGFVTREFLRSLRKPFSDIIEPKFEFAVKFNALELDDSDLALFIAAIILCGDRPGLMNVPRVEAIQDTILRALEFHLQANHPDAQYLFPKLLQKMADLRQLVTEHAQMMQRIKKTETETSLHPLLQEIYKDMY
Experimental: The agonist or antagonist activity of compound 1 on the PPAR receptors was tested by fluorescence techniques. • Material and Methods
The results are expressed as: • percentage of control specific agonist response (measured specific response/control specific agonist response)×100) and • percentage inhibition of the control specific agonist response (100−((measured specific response)/control specific agonist response)×100)) obtained in the presence of compound 1.
The EC50 values (concentration at which the maximum specific response is 50%) and the IC50 values (concentration at which the maximum control specific agonist response is inhibited by 50%) are determined by non-linear regression analysis of the concentration-response curves with a mean replicated value using adjustment of Hill's equation
For the antagonists, the apparent dissociation constants (KB) were calculated using the modified Cheng-Prusoff equation

inhibition at 10 µM (PPARδ (h); 10^−5 M, read-out: % Inhibition of control agonist response): -5%
inhibition at 1 µM (PPARδ (h); 10^−6 M, read-out: % Inhibition of control agonist response): -2%
inhibition at 0.1 µM (PPARδ (h); 10^−7 M, read-out: % Inhibition of control agonist response): 0%
PPARδ antagonist activity (conclusion in words) (PPARδ (h); 10^−7 to 10^−5 M): not an antagonist
Compound: Oc1ccccc1CCOc1ccc(F)cc1 [Compound 1, 2-[2-(4-fluoro-phenoxy)-ethyl]-phenol]
Collagen IV along the dermal-epidermal junction (collagen IV): clear overexpression
General morphology: epidermal structure and papillary dermis [1]: very clear epidermal and dermal restructuring activity
Collagen VII along the dermal-epidermal junction (collagen VII): moderate overexpression
Effect on keratinocyte differentiation (conclusion) [2]: pro-differentiating effect
Stimulation of expression of markers involved in lipid synthesis, antimicrobial defence, innate immunity and cell-cell interactions ([2]; compared with calcium chloride at 1.5 mM): less, but similar to calcium chloride at 1.5 mM
Viability (MTT) % stimulated control (B16 melanocytes; 10 μM, B16, 72 h, Table 2): 83%
Viability (MTT) % stimulated control (B16 melanocytes; 30 μM, B16, 72 h, Table 2): 86%
Viability (MTT) % stimulated control (B16 melanocytes; 30 μM, comparison with 2 reference molecules, Table 3): 85%
Viability (MTT) % stimulated control (B16 melanocytes; 100 μM, B16, 72 h, Table 2): 22%
Viability (MTT) % stimulated control (B16 melanocytes; 100 μM, comparison with 2 reference molecules, Table 3): 13%
Protein expression of filaggrin (filaggrin): concentration-dependent stimulation of protein expression
